The source of these data is patent publication US20230105693A1, “ANTIMICROBIAL COMPOSITIONS” (Firmenich SA, priority 2020, published 2023).

Data set [1] is described as follows: Equivalent alkane carbon number (EACN) in model microemulsion system. To be noted: C10E5/water/isopropyl myristate model system, 3% wt perfume ingredient. Format: physicochemical. The method, then:
EACN values provide information on polarity and surface activity of apolar ingredients. Tchakalova and Fieber (J. of Surfactants and Detergents, 2012, 15(2):167-177) classified perfume ingredients based on values of EACNmix, the EACN of a mixture consisting of a test perfume ingredient and a reference oil (isopropyl myristate). The same model system and method were used to measure the EACN values of perfume ingredients with antimicrobial activities. Different perfume ingredients were added to the model microemulsion system shown in Table 1, in which the nonionic pentaethylene glycol mono n-decyl ether (C10E5) was used as surfactant. Phase transition temperatures of the system from Winsor I to Winsor III, and from Winsor III to Winsor II were determined using a water bath. Alkanes with different alkane carbon numbers (octane, decane, dodecane and hexadecane) were used to establish a linear correlation curve between EACN and the PIT, which is the average of the transitions from Winsor I to Winsor III, and from Winsor III to Winsor II, respectively. EACNmix was then calculated based on the linear relationship and the measured PIT for systems containing different perfume ingredients. The EACN of the pure perfume ingredient was calculated based on the molar ratio of the tested PRMs in the oil phase using following equation: […]
wherein n and nref are the molar fractions of tested perfume ingredient and the reference ingredient (i.e., isopropyl myristate) in the oil phase, respectively.

In the next data set the test system is E. coli ATCC 10536. The data set is described as follows: Bacterial contact time (BCT) test of perfume ingredients in 20% ethanol solution (EN-1276 based). It counts as cell-based, Escherichia coli. To be noted: 20% EtOH, 45 s. The procedure: Bacterial suspensions of E. coli ATCC 10536 were prepared for antimicrobial testing as follows. Stock cultures stored at -80° C. were sub-cultured onto Tryptic Soy Agar (TSA) plate, and incubated at 37° C. for 24 h to obtain single colonies. Single colonies of the primary cultures were streaked onto TSA plates and incubated at 37° C. for 24 h to prepare the secondary cultures. Single colonies of secondary cultures were inoculated into 50 mL of Tryptic Soy broth (TSB), incubated at 37° C. 180 rpm for 18 h. Aliquots (0.5 ml) of the 18 h culture were inoculated into 50 ml of fresh TSB, and incubated at 37° C. 180 rpm for 2- 3 hours. When the OD600 nm value of the broth reached 1-2, cells were harvested by centrifugation at 5,000 rpm for 10 min, and then resuspended in the same fresh broth media to achieve the target level of 1-5 × 10^8 colony forming unit (CFU)/mL. This suspension was used for further antimicrobial tests.
Unless indicated otherwise, log reduction testing according to the present invention is determined in accordance with the following method.
Bacterial contact time (BCT) test based on European standard EN-1276 was used to determine dose dependent bactericidal activity of perfume ingredients in 20% ethanol solutions.
Perfume ingredients of various concentrations (doses) were prepared in 40% ethanol solutions. Eleven replicates of each sample were added into 96-well microtiter plates (120 µl per well) in column 1-11 of one row, with row B as the control sample of the ethanol solution. Then, 120 µl of cell suspension at a concentration of approximately 1-5 × 10^8 CFU/ML (as prepared above) were added to each well of the microtiter plate. A specified contact time (45 s) was allowed for target bacterial strains. At the end of the contact time, serial dilutions were prepared in 96 well plates with growth media: 3 times of 1 in 10 dilutions and followed by 17 times of 1 in 2 dilutions. Each plate was sealed and incubated at 37° C. under agitation (180 rpm). After incubation, turbidity of the wells (OD 600 nm) was recorded by Tecan microplate reader. Turbid cells were regarded as positive growth of viable cells. The total number of viable cells (log CFU/mL) for each sample was calculated. And the log reduction for each test composition at the final concentration (dose) was calculated against the control sample of the 20% ethanol solution.
Table 20 show the bactericidal dose related effect (log reduction) and calculated effect fraction of the Mixture C and compositions against E. coli ATCC 10536. Stock of compositions were prepared in 100% ethanol, then diluted in MilliQ water to obtain 2 × final concentration in 40% ethanol. BCT tests were conducted on samples against E. coli for a contact time of 45 s.

Data set [2] deals with Escherichia coli ATCC 10536. In words: Robotic BCT test of perfume ingredients in model surfactant bases. Format: cell-based. The settings on record: for Log reduction (Log CFU/mL) Base 3: Base 3: SLES 1.5%, coco-glucoside 0.75%; for Log reduction (Log CFU/mL) Base 4: Base 4: SLES 2.25%, sodium xylene sulfonate 3%; for log reduction at 0.5 %: Escherichia coli, ATCC10536, 45 s. The method, then:
The surfactant bases tested included 1) sodium lauryl ether sulfate (SLES) and cocamidopropyl betaine (CAPB) at 3:1 mass ratios; 2) SLES, CAPB and coco-glucoside at 2:1:1 mass ratios. Test samples were prepared by mixing perfume ingredients with the surfactant bases and vigorously stirred for 24 hrs. Concentration of perfume ingredients in the bases was 0.5% wt. Samples with transparent appearance were selected for antimicrobial testing.
Antimicrobial efficacy was tested against a representative Gram-negative bacterial strain, Escherichia coli ATCC 10536, using robotic bacteria contact time (BCT) test based on European standard EN-1276 and EP2787827(B1).
Preparation of screening plate and dilution plate: Aliquots (270 µl) of compositions were dispensed into the wells of a 96-well microtiter plate (MTP) along two columns (B1-H1, and B7-H7), and 270 µl of MilliQ water was added to well A1 and A7 as the control samples. This MTP was labelled as the “Screening plate”. In another MTP, labelled as the “Dilution plate”, 270 µL of Dey-Engley (D/E) neutralizing solution was added to column 1 and column 7. 270 µl of tryptone diluent solution was added to columns 2-6 and columns 8-12 of the Dilution MTP by a Hamilton robotic liquid handling station.
BCT test & neutralization & dilution: Bacterial stock (30 µl) was then added to columns 1 of the ‘Screening plate’ and mixed by a Hamilton robotic liquid handling station. After a contact time of 45 seconds, 30 µl of the mixtures in column 1 were transferred into the corresponding wells of column 1 of the ‘Dilution plate’. After neutralizing for 5 minutes in the D/E neutralizing solution, 30 µl of the neutralized mixtures were transferred from column 1 to column 2 of the Dilution MTP and mixed, followed by transferring 30 µl of the mixtures from column 2 into column 3. This process was repeated serially diluting the bacteria suspensions across the plate to column 6. Bacterial stock (30 µl) was then added to columns 7 of the ‘Screening plate’ and mixed by a Hamilton robotic liquid handling station. After a contact time of 45 seconds, 30 µl of the mixtures in column 7 were transferred into the corresponding wells of column 7 of the ‘Dilution plate’. After neutralizing for 5 minutes in the D/E neutralizing solution, 30 µl of the mixtures were transferred from column 7 to column 8 of the Dilution MTP and mixed, followed by transferring further 30 µl mixtures from column 8 into column 9. This process was repeated serially diluting the bacteria suspensions across the plate to column 12.
Plating: 30 µl volumes from each well in the Dilution MTP were transferred onto four Tryptone Soya Agar (TSA) plates. The TSA plates were allowed to stand for about two hours so that the 30 µl inocula spots could dry and the plates were then inverted and incubated overnight at 37° C. for 24 hours. After incubation, colonies were counted.
Calculating log reduction: Select the dilutions with colony counts, and calculate the viable cell counts (CFU/mL) of mixture in ‘Screening plate’, and log reduction against the control MilliQ sample was calculated.

Setting [3] is: 0.5% perfume ingredient, CAPB 0.75%, contact 45 s.
Where [4] appears, read: 0.5% perfume ingredient, Base 1: SLES 1.875%, CAPB 0.625%, contact 45 s, read-out: Log reduction in Base 1 (Log CFU/mL).
Where [5] appears, read: 0.5% perfume ingredient, Base 2: SLES 2.25%, CAPB 0.75%, contact 45 s, read-out: Log reduction (Log CFU/mL) Base 2.
Where [6] appears, read: model base 1, table by functional group, read-out: Log reduction in Base 1 (Log CFU/mL).

Where a name gives a salt, the structure may show the parent alone. Read-outs that look alike come from different tables or passages of the source.

As for `CC/C=C\CC1=C(C)CCC1=O` [3-methyl-2-[(2Z)-2-penten-1-yl]-2-cyclopenten-1-one], the EACN in data set [1] is -8.51.

On to `CC(C)=CCC/C(C)=C/CO` [(E)-3,7-dimethyl-2,6-octadien-1-ol], for which the EACN in data set [1] is -28.65. The Effect fraction was -0.020 with E. coli ATCC 10536 (dose 0.040% w/v); 0.130 with E. coli ATCC 10536 (dose 0.050% w/v); 0.350 in the data set on E. coli ATCC 10536 (dose 0.055% w/v); 0.660 with E. coli ATCC 10536 (dose 0.060% w/v); 1.000 with E. coli ATCC 10536 (dose 0.070% w/v). For the same molecule, the Log reduction is -0.175 in the data set with E. coli ATCC 10536 (dose 0.040% w/v); 0.909 in the data set with E. coli ATCC 10536 (dose 0.050% w/v); 2.474 with E. coli ATCC 10536 (dose 0.055% w/v); 4.760 in the data set with E. coli ATCC 10536 (dose 0.060% w/v); 7.160 in the data set on E. coli ATCC 10536 (dose 0.070% w/v). Besides, the “Log reduction (Log CFU/mL) Base 3” value in data set [2] (setting [3]) amounted to 4.2 Log CFU/mL. Besides, the “Log reduction (Log CFU/mL) Base 4” value in data set [2] (setting [3]) is on record as “Insoluble”. Besides, the log reduction at 0.5 % in data set [2] (setting [4]) is > 5.4; in data set [2] (setting [5]), 0.5; in data set [2] (setting [6]) it was > 5.5.

On to `CC(C)=CCC/C(C)=C\CO` [(Z)-3,7-dimethyl-2,6-octadien-1-ol], for which the EACN in data set [1] is given as -28.26. For the same molecule, in data set [2] (setting [3]), the “Log reduction (Log CFU/mL) Base 3” value is on record as 4.9 Log CFU/mL. The “Log reduction (Log CFU/mL) Base 4” value in data set [2] (setting [3]) is given as 4.5 Log CFU/mL. The figures for the log reduction at 0.5 % in data set [2] (setting [4]), in data set [2] (setting [5]) and in data set [2] (setting [6]) were > 5.4, 0.5 and > 5.5, respectively.

For the molecule `CC(C=O)Cc1ccc2c(c1)OCO2` (racemic) [(+-)-3-(1,3-benzodioxol-5-yl)-2-methylpropanal], the EACN in data set [1] is -11.56.

Consider `CCCCCC1CCCC(=O)O1` (racemic) [(+-)-6-pentyltetrahydro-2H-pyran-2-one], for which the EACN in data set [1] is -13.27.

`Cc1ccc2c(c1)CC(C)(CO)C2` (racemic) [(+-)-2,5-dimethyl-2-indanmethanol]: in data set [1], the EACN is -33.01.

With `CC(C)=CCC/C(C)=C\C=O` [(2Z)-3,7-dimethyl-2,6-octadienal OR (2E)-3,7-dimethyl-2,6-octadienal], the EACN in data set [1] is -5.09.

On to `O=COCCc1ccccc1` [2-phenylethyl formate], for which the EACN in data set [1] was -6.21. In data set [2] (setting [4]), the log reduction at 0.5 % amounted to 0.3.

For the molecule `CC/C(=C\C[C@H]1CC=C(C)C1(C)C)CO` [(-)-(2E)-2-ethyl-4-[(1R)-2,2,3-trimethyl-3-cyclopenten-1-yl]-2-buten-1-ol], the EACN in data set [1] was -23.86. Moreover, in data set [2] (setting [3]), the “Log reduction (Log CFU/mL) Base 3” value is listed as “Insoluble”. The “Log reduction (Log CFU/mL) Base 4” value in data set [2] (setting [3]) is on record as “Insoluble”. For the same molecule, the log reduction at 0.5 % in data set [2] (setting [4]) was -0.2; in data set [2] (setting [5]), -1.

In the case of `CC(C)(C)C1CCC(=O)CC1` [4-(2-methyl-2-propanyl)cyclohexanone], the EACN in data set [1] was -3.78.

`C/C=C/c1ccc(O)c(OC)c1` [2-methoxy-4-[(1E)-1-propen-1-yl]phenol]: the EACN in data set [1] is given as -42.88. The log reduction at 0.5 % in data set [2] (setting [4]) is 0.

On to `CC(CO)c1ccccc1` (racemic) [(+-)-2-phenyl-1-propanol], for which, in data set [1], the EACN is given as -29.67. The log reduction at 0.5 % in data set [2] (setting [4]) was -0.3.

On to `CC/C=C\CC/C=C/CO` [(2E,6Z)-2,6-nonadien-1-ol], for which the EACN in data set [1] is -35.12. In data set [2] (setting [3]), the “Log reduction (Log CFU/mL) Base 3” value is reported as 3.9 Log CFU/mL. Besides, the “Log reduction (Log CFU/mL) Base 4” value in data set [2] (setting [3]) is listed as >4.5 Log CFU/mL. The log reduction at 0.5 % in data set [2] (setting [4]) is 5.6; in data set [2] (setting [5]), 0.5; in data set [2] (setting [6]) it was > 5.5.

For `CCCCCCCCCCC=O` [undecanal], the EACN in data set [1] came to 4.59.

As for `CCOC(=O)Cc1ccccc1` [ethyl phenylacetate], the EACN in data set [1] is -7.26.

Regarding `CC(=O)OC(C)c1ccccc1` (racemic) [(+-)-1-phenylethyl acetate], the EACN in data set [1] is recorded as -0.99. In data set [2] (setting [3]), the “Log reduction (Log CFU/mL) Base 3” value is on record as 0.2 Log CFU/mL and the “Log reduction (Log CFU/mL) Base 4” value is “Insoluble”. In data set [2] (setting [4]), the log reduction at 0.5 % was 0.6 ± 1. Also, the log reduction at 0.5 % in data set [2] (setting [5]) turned out to be 0.

With `CC1=CCC(C(C)(C)O)CC1` (racemic) [(+-)-alpha-terpineol], the EACN in data set [1] was -16.69. The log reduction at 0.5 % in data set [2] (setting [4]) stood at 1.6.

In the case of `CCCc1ccc2c(c1)OCC(=O)CO2` [7-propyl-2H,4H-1,5-benzodioxepin-3-one], the EACN in data set [1] is given as -40.99. The log reduction at 0.5 % in data set [2] (setting [4]) worked out at 0.

On to `CC1=CC(C)C(CO)C(C)C1` (racemic) [(+-)-2,4,6-trimethyl-3-cyclohexene-1-methanol], for which, in data set [1], the EACN is given as -25.02.
